Laboratory results published in BigSolDB 2.1.

O=C(O)/C=C/C(=O)O
solubility (mole fraction)
Settings	in acetone	in ethanol	in isopropanol	in n-propanol	in water
279 K	0.00344	0.0126	0.0109	0.00847	0.000136
285 K	0.00419	0.014	0.0138	0.0103	0.000435
291 K	0.00498	0.0157	0.0169	0.0122	0.000813
297 K	0.00583	0.0178	0.0202	0.0143	0.00125
303 K	0.00673	0.0205	0.0236	0.0165	0.00171
309 K	0.00768	0.0233	0.0272	0.0189	0.00221
315 K	0.00867	0.0267	0.031	0.0215	0.00265
321 K	0.00972	0.0305	0.0349	0.0243	0.00328
327 K	0.0108	0.0344	0.0391	0.0274	0.00415
333 K	0.012	0.0383	0.0435	0.0306	0.00541
339 K	–	–	–	0.0355	0.00624
342 K	–	–	0.0538	–	–
343 K	–	0.0451	–	–	–
345 K	–	–	–	0.0398	–
351 K	–	–	0.0656	–	–
351.8 K	–	–	–	0.0486	–
353 K	–	–	–	–	0.00884
